One compound from patent US4812409A, “Hydrolyzable fluorescent substrates and analytical determinations using same” (Eastman Kodak Company, priority 1986, dated 1989) can be followed below.

The test system of one test is diacetinase. Description: Solution determination of an esterase enzyme. It counts as biochemical. As to conditions: pH 7.5, 25° C.; for Relative Fluorescence, Test Cell: ex 540 nm, em 620 nm. As to the method:
A buffered solution of the substrate was prepared as follows. The substrate in N,N-dimethylformamide (16 mg/ml solvent) was added to 500 μl TRITON X-100 surfactant, and the resulting solution was added slowly to 25 ml potassium phosphate buffer (0.05 molar, pH 7.5) with stirring. Three milliliters of the buffered solution containing the substrate was placed in each of two quartz cells. To one cell was added 10 μl of a solution containing diacetinase (0.218 I.U. diacetinase per μl of potassium phosphate buffer, pH 7.5). The second cell was the Control. The relative fluorescence of each cell solution was measured at various times with a commercially available Perkin-Elmer fluorometer (excitation, 540 nm, maximum emission, 620 nm) at pH 7.5 and 25° C.

In another test the test system is white blood cells. Description: Determination of esterase activity in white blood cells. It counts as cell-based. As to conditions: pH 7.5, ex 540 nm, em 620 nm. As for the experimental part:
Leucocyte-rich layers (buffy coats) were purified from blood of healthy adult donors (taken in ACD tubes*) by adding 1.5 ml of Dextran T70 (6% in balanced salt solution), purchased from Pharmacia Fine Chemical (Piscataway, N.J., U.S.A.), to a 10 ml tube of blood. The tubes were allowed to set for one hour, then the plasma layer was transferred to sterile 15 ml centrifuge tubes, and the tubes were filled up to 7.5 ml with PBS solution (8.5 g sodium chloride in 0.05 molar potassium phosphate buffer, pH 7.5). The tubes were centrifuged at 1000 RPM for 10 minutes. The resulting cell pellet was resuspended in 10 ml lysing solution [0.83 g ammonium chloride, 0.1 g sodium bicarbonate and 0.003 g (ethylenedinitrilo)tetraacetic acid disodium salt in 100 ml of water, pH 7.2], and the tubes were allowed to set until the solution cleared. The tubes were again centrifuged, and the pellet was washed and resuspended in PBS. Cells were counted and adjusted to about 10^6 cells/ml.
Three milliliters of various concentrations of white blood cells in potassium phosphate buffer (0.05 molar, pH 7.5) were mixed with 10 μl of the substrate of Example 3 ([…]), and the relative fluorescence was measured at an excitation wavelength of 540 nm and a maximum emission wavelength of 620 nm.

Test [1] deals with carboxy esterase (Esterase, Type II). Nature of the test: Determination of esterase activity in a dry analytical element. The format is biochemical. As to conditions: filter paper element; 10 μl of 10 μg/ml esterase, pH 7.5; 1 minute incubation at 37° C. As to the method: A strip of Whatman No. 2 filter paper (VWR Scientific Co., Rochester, N.Y., U.S.A.) was immersed in a solution of the substrate in methanol (3 mg in 0.5 ml). The paper was then allowed to dry at 37° C. for two hours.
A carboxy esterase (Esterase, Type II, 100 I.U./mg protein from Sigma Chemical Co., St. Louis, Mo., U.S.A.) was dissolved in 0.05 molar potassium phosphate buffer (pH 7.5), 10 μg/ml of buffer. A sample (10 μl) of this solution was applied to the filter paper and the sample came into contact with the substrate therein. A Control solution containing only buffer was applied to a separate area of the element. After 1 minute incubation at 37° C., the element was visually examined.

Regarding `CC(=O)Oc1ccc2c3c(cccc13)C(=O)C=C2` [Example 3], the “Relative Fluorescence, Test Cell” value is 134 with diacetinase (0 min); 142 in the test with diacetinase (0.5 min); 150 in the test with diacetinase (1.0 min); 161 in the test on diacetinase (3.0 min); 175 with diacetinase (5.0 min); 202 in the test with diacetinase (7.0 min). The “Relative Fluorescence, Test Cell” value worked out at 238 in the test with diacetinase (10.0 min) and 266 in the test with diacetinase (15.0 min). The “Generation of fluorescence in the cell containing the esterase enzyme (in words)” value in the test with diacetinase is given as “rapid generation of fluorescence”. In addition, the “Relative Fluorescence” value in the test on white blood cells (Sample 2, Cell Conc/μl 4.92 × 10^3, 0 Min) was determined as 28.2; in the test with white blood cells (Sample 2, Cell Conc/μl 4.92 × 10^3, 10 Min) it was 37.1; with white blood cells (Sample 2, Cell Conc/μl 4.92 × 10^3, 15 Min), 42.6; in the test with white blood cells (Sample 2, Cell Conc/μl 4.92 × 10^3, 30 Min), 60.4; in the test on white blood cells (Sample 3, Cell Conc/μl 4.92 × 10^4, 0 Min), 23.2; in the test with white blood cells (Sample 3, Cell Conc/μl 4.92 × 10^4, 10 Min), 41.7. The “Relative Fluorescence” value was found to be 48.8 in the test on white blood cells (Sample 3, Cell Conc/μl 4.92 × 10^4, 15 Min); 70.3 in the test with white blood cells (Sample 3, Cell Conc/μl 4.92 × 10^4, 30 Min); 25.6 in the test with white blood cells (Sample 4, Cell Conc/μl 4.92 × 10^5, 0 Min); 69.0 in the test with white blood cells (Sample 4, Cell Conc/μl 4.92 × 10^5, 10 Min); 85.0 in the test with white blood cells (Sample 4, Cell Conc/μl 4.92 × 10^5, 15 Min); 124.0 with white blood cells (Sample 4, Cell Conc/μl 4.92 × 10^5, 30 Min). Also, in test [1], the “Colour of element area contacted with esterase enzyme (visual examination)” value is “bright orange”.
